According to patent publication EP0610377B1, “TRI-SUBSTITUTED TETRAHYDROFURAN ANTIFUNGALS” (SCHERING CORPORATION, priority 1991, dated 1993):

Columns and labels:
Format in all cases: in vivo
[1] = test system: Aspergillus flavus; assay: Aspergillus flavus pulmonary infection model in compromised mice, oral treatment; conditions: for %SURVIVAL / %ANIMALS NEG: 33 mg/kg PO [3RX/DAY] for 4 days, 18 days post infection; for %SURVIVAL: compromised CF-1 mice; for %ANIMALS NEG: negative = <10 colonies
[2] = test system: C. albicans C-43; assay: Candida systemic model in CF1 mice infected IV with C. albicans C-43, oral treatment; conditions: for %SURVIVAL: day 4 post-infection; for CFUs (GM): day 4
Method: The compounds of Examples 23-26 and itraconazole, fluconazole, and saperconazole were tested for in vivo oral antifungal activity in a Candida systemic model using CF1 male mice , average weight 20 g, Harlan Sprague Dawley, Inc., Indianapolis, Ind. infected by IV injection into the tail vein of C. albicans C-43 (5 million CFUs). […] Oral efficacy was measured after four (4) days by percent survival and by the number of organisms remaining in the kidneys i.e., the Colony Forming Units (CFUs). The mice were sacrificed and the kidneys of individual mice were homogenized in sterile saline, diluted and spread onto Mycosel agar. Colony counts were determined after 48 hours at 37°C. For calculation of geometric means, mice that died during the experiment were considered to have 10^9 CFUs/kidneys (based on numerous previous experiments).

[3] = test system: Aspergillus flavus; assay: Aspergillus flavus pulmonary infection model in compromised mice, oral treatment; conditions: for %SURVIVAL / %ANIMALS NEG: 18 days post infection; for %SURVIVAL: compromised CF-1 mice; for %ANIMALS NEG: negative = <10 colonies
Excerpt: The in vivo oral antifungal activity of the compounds of Example 23-26 were compared to those of itraconazole, fluconazole and saperconazole in an Aspergillus pulmonary infection model in mice. The procedure of David Loebenberg et al. entitled "Sch 42427, The Active Enantiomer of Antifungal agent Sch 39304: In Vitro and In Vivo Activity" Antimicrobial Agents and Chemotherapy (1992), 36 498-501 was used. The Aspergillus flavus pulmonary model was run in the following manner Male, CF-1 mice weighing 20 grams were compromised with cortisone acetate (100 mg/kg), administered subcutaneously, once daily for 3 days. In addition, to prevent bacterial disease, tetracycline HCL (300 mg/1) was added to the drinking water and given ad libitum. On day 2 of compromising, mice were infected in an inhalation chamber, first described by Piggot and Emmons in 1960 and modified by us. The chamber is a 1 liter pyrex, thick-walled flask with 8 tubular side-arms that extend into the flask. Each side-arm is a pyrex tube of 14 cm length, constricted to a 1 cm opening inside the flask. The bottom of the flask was covered with a malt extract agar medium on which a sporulating culture of A. flavus ATCC 24133 was grown for 13 days at room temperature. The top of the flask was closed with a #10 stopper through which passed a glass tube attached by rubber tubing to a 60 mL syringe. Mice were placed in each of the side arms and pushed to the bottoms so that their nares extended beyond the open end of the tube and over the agar. Cotton plugs were then inserted behind the mice to hold them in place. By pumping the 60 mL syringe twice, air was forced over the culture and produced a cloud of spores. Mice were exposed to the spore cloud for one minute. Within 15-30 minutes after exposure, a number of mice were sacrificed and lung tissue samples homogenized for culture to determine the number of inhaled conidia. Oral treatment began 24 h post-infection with doses of 5 to 250 mg of drug/kg in ethanol; vehicle (115 ml of Emulphor EL-719P, GAF, Wayne, NJ; and 5 ml of 20% w/v lactic acid per liter of water), 10:90 v/v, once daily for 4 days.
The procedure of Example 31 was used to compare the in vivo oral antifungal activity of (±)-5R/S-(cis)-4-[4-[4-[4-[[5-(2,4-difluorophenyl)-5-(1H-1,2,4-triazol-1-ylmethyl) tetrahydrofuran-3-yl]methoxy-phenyl-1-piperazinyl]phenyl]-2,4-dihydro-2[(R/S)-(1-methylpropyl)]-3H-1,2,4-triazol-3-one with (±)-2R/S-(cis)-1-[4-[[2-(2,4-difluorophenyl)-2-(1H-1,2,4-triazol-1-ylmethyl) tetrahydro-4-furanyl]methoxy]phenyl]-4-(1-methylethyl)piperazine of Example 68 of USP 5,039,676 in an Aspergillus pulmonary infection model described in Example 31. […]
The procedures of Examples 31 and 34 were used.

[4] = test system: C. albicans C-65; assay: Candida systemic model in normal and compromised CF1 mice infected with C. albicans C-65, oral treatment; conditions: for % S (Percent Survival): day 4 post-infection; for CFUs (GM): day 4, geometric mean of the logarithms of CFU in the kidneys
Method: The compounds of Examples 23-26 and itraconazole, fluconazole, and saperconazole were tested for in vivo oral antifungal activity in a Candida systemic model using CF1 male mice , average weight 20 g, Harlan Sprague Dawley, Inc., Indianapolis, Ind. infected by IV injection into the tail vein of C. albicans C-43 (5 million CFUs). The drugs were dissolved in polyethylene glycol-200 (PEG-200) and tested by orally administering 50, 25 and 10 mpk of each drug 4 hours post infection and once daily for 3 more days. Oral efficacy was measured after four (4) days by percent survival and by the number of organisms remaining in the kidneys i.e., the Colony Forming Units (CFUs). The mice were sacrificed and the kidneys of individual mice were homogenized in sterile saline, diluted and spread onto Mycosel agar. Colony counts were determined after 48 hours at 37°C. For calculation of geometric means, mice that died during the experiment were considered to have 10^9 CFUs/kidneys (based on numerous previous experiments).
The compounds of Examples 23-24 and itraconazole, fluconazole, were tested for in vivo oral antifungal anctivity in a Candida systemic model using normal and compromised CF1 mice infected with C. albicans C-65 (5 million CFUs). The procedure of Example 33 was followed. The drugs were dissolved in polyethylene glycol-200 ("PEG-200) at room temperature and tested by orally administering 100, 50, 25, 10 and 1 mpk of each drug. Oral efficacy was measured by percent survival and by the number of organisms remaining in the kidneys (CFUs) after four days. […] The pharmaceutical composition of the preferred compound of formula IIb of Eample 24 in hydroxypropyl beta cyclodextrin ("HPβCD") having 7.4 hydroxypropyl groups per HPβCD (obtained from Pharmatec, Inc., Alachua, FL 32615) was prepared by admixing the appropriate amount of the compound IIa with a 40% (w/v) solution of HPβCD (4 g of HPβCD per 10 mL of purified water). Gentle heating was used to form a clear solution. For the 10 mpk dose, 12 mg of Ha was added to 6 mL of a 40% w/v solution of HPβCD. For dilutions, sterile water was added to the solution with mixing. The pharmaceutical composition of itraconazole and the Pharmatec HPβCD described above was prepared as follows. Propylene glycol (10 mL) was admixed with 0.95 mL of concentrated HCI at 40°-45°C with stirring. Itraconazole (2.5 g) was added thereto and stirring was continued until homogeneous. The mixture so formed was cooled to 20° to 30°C and admixed with a solution of 60 g of HPβCD in 40 mL of purified water to form a clear solution. The pH was adjusted to a value of 1.9-2.1 with 10N NaOH and sufficient purified water added (with mixing) to a final volume of 100 mL. For dilutions, sterile water was added to the itraconazole - HPβCD.

[5] = 50 mg/kg PO in PEG-200, OD for 4 days, CF-1 mice
[6] = 100 mg/kg PO in PEG-200, OD for 4 days, CF-1 mice
[7] = 200 mg/kg PO in PEG-200, OD for 4 days, CF-1 mice
[8] = 10 MPK PO in PEG-200, 1 a day x 4 days
[9] = 10 MPK PO in PEG-200, geometric mean of the logarithms of CFU remaining in the kidneys (dead mice counted as 10^9)
[10] = 25 MPK PO in PEG-200, 1 a day x 4 days
[11] = 25 MPK PO in PEG-200, geometric mean of the logarithms of CFU remaining in the kidneys (dead mice counted as 10^9)
[12] = 50 MPK PO in PEG-200, 1 a day x 4 days
[13] = 50 MPK PO in PEG-200, geometric mean of the logarithms of CFU remaining in the kidneys (dead mice counted as 10^9)
[14] = 33 mg/kg PO once a day for 4 days
[15] = 66 mg/kg PO once a day for 4 days
[16] = 100 mg/kg PO once a day for 4 days

Compound: CCC(C)n1ncn(-c2ccc(N3CCN(c4ccc(OC[C@@H]5CO[C@@](Cn6cncn6)(c6ccc(F)cc6F)C5)cc4)CC3)cc2)c1=O (mixture of isomers) [Compound 1 of Table III of Examples 34, (±)-5R/S-(cis)-4-[4-[4-[4-[[5-(2,4-difluorophenyl)-5-(1H-1,2,4-triazol-1-ylmethyl)tetrahydrofuran-3-yl]methoxyphenyl-1-piperazinyl]phenyl]-2,4-dihydro-2[(RS)-(1-methylpropyl)]-3H-1,2,4-triazol-3-one]
- Percent Survival After 11 Days [1, 5]: 16.7
- Percent Survival After 11 Days [1, 6]: 41.7
- Percent Survival After 11 Days [1, 7]: 50.0
- PERCENT SURVIVAL AFTER 5 DAYS (5D) ([1]; head prints 50 mg/kg (third dose column, c3), in PEG-200 daily for 4 days, CF-1 mice): 50

Compound: CC[C@@H](C)n1ncn(-c2ccc(N3CCN(c4ccc(OC[C@H]5CO[C@](Cn6cncn6)(c6ccc(F)cc6F)C5)cc4)CC3)cc2)c1=O [Example 26, (+)-[(5S)-cis]-4-[4-[4-[4-[[5-(2,4-Difluorophenyl)-5-(1H-1,24-triazol-1-ylmethyl)tetrahydrofuran-3-yl]methoxy]phenyl]-1-piperazinyl]phenyl]-2,4-dihydro-2-[(1R)-(1-methylpropyl)]-3H-1,2,4-triazol-3-one]
- %SURVIVAL [2, 8]: 0%
- CFUs (GM) [2, 9]: 9.00
- %SURVIVAL [2, 10]: 0%
- CFUs (GM) [2, 11]: 9.00
- %SURVIVAL [2, 12]: 20%
- CFUs (GM) [2, 13]: 7.84
- %SURVIVAL [1]: 0%
- %ANIMALS NEG [1]: 0%
- %SURVIVAL [3, 14]: 0%
- %ANIMALS NEG [3, 14]: 0%
- %SURVIVAL [3, 15]: 0%
- %ANIMALS NEG [3, 15]: 0%
- %SURVIVAL [3, 16]: 20%
- %ANIMALS NEG [3, 16]: 0%

Compound: CC[C@H](C)n1ncn(-c2ccc(N3CCN(c4ccc(OC[C@H]5CO[C@](Cn6cncn6)(c6ccc(F)cc6F)C5)cc4)CC3)cc2)c1=O [Example 25, (+)-[(5S)-cis]-4-[4-[4-[4-[[5-(2,4-Difluorophenyl)-5-(1H-1,2,4-triazol-1-ylmethyl)tetrahydrofuran-3-yl]methoxy]phenyl]-1-piperazinyl]phenyl]-2,4-dihydro-2-[(1S)-(1-methylpropyl)]-3H-1,2,4-triazol-3-one]
- %SURVIVAL [2, 8]: 0%
- CFUs (GM) [2, 9]: 9.00
- %SURVIVAL [2, 10]: 0%
- CFUs (GM) [2, 11]: 9.00
- %SURVIVAL [2, 12]: 0%
- CFUs (GM) [2, 13]: 9.00
- %SURVIVAL [1]: 20%
- %ANIMALS NEG [1]: 10%
- %SURVIVAL [3, 14]: 0%
- %ANIMALS NEG [3, 14]: 0%
- %SURVIVAL [3, 15]: 0%
- %ANIMALS NEG [3, 15]: 0%
- %SURVIVAL [3, 16]: 10%
- %ANIMALS NEG [3, 16]: 0%

Compound: CC(C)N1CCN(c2ccc(OC[C@@H]3CO[C@@](Cn4cncn4)(c4ccc(F)cc4F)C3)cc2)CC1 (racemic) [Example 68 of US Patent 5,039,676, (±)-2R/S-(cis)-1-[4-[[2-(2,4-difluorophenyl)-2-(1H-1,2,4-triazol-1-ylmethyl)tetrahydro-4-furanyl]methoxy]phenyl]-4-(1-methylethyl)piperazine, reference compound]
- Percent Survival After 11 Days [1, 5]: 0
- Percent Survival After 11 Days [1, 6]: 0
- Percent Survival After 11 Days [1, 7]: 0
- oral activity in the Aspergillus pulmonary mouse model ([3]; PO, result in words (active / inactive)): inactive

Compound: OC(Cn1cncn1)(Cn1cncn1)c1ccc(F)cc1F [Fluconazole, reference compound]
- %SURVIVAL ([2]; 1 MPK PO in ETOH/Mon, 1 a day x 4 days): 70%
- CFUs (GM) ([2]; 1 MPK PO in ETOH/Mon, geometric mean of the logarithms of CFU remaining in the kidneys): 6.58
- %SURVIVAL ([2]; 10 MPK PO in ETOH/Mon, 1 a day x 4 days): 90%
- CFUs (GM) ([2]; 10 MPK PO in ETOH/Mon, geometric mean of the logarithms of CFU remaining in the kidneys): 5.68
- %SURVIVAL [3, 16]: 10%
- %ANIMALS NEG [3, 16]: 0%
- % S (Percent Survival) ([4]; 600 Rads Mice (compromised), 10 MPK PO in PEG-200, 1/day x 4 days): 20%
- CFUs (GM) ([4]; 600 Rads Mice (compromised), 10 MPK PO in PEG-200): 8.01
- % S (Percent Survival) ([4]; 600 Rads Mice (compromised), 25 MPK PO in PEG-200, 1/day x 4 days): 50%
- CFUs (GM) ([4]; 600 Rads Mice (compromised), 25 MPK PO in PEG-200): 6.91
- % S (Percent Survival) ([4]; Normal Mice, 1 MPK PO in PEG-200, 1/day x 4 days): 60%
- CFUs (GM) ([4]; Normal Mice, 1 MPK PO in PEG-200): 5.81
- % S (Percent Survival) ([4]; Normal Mice, 10 MPK PO in PEG-200, 1/day x 4 days): 80%
- CFUs (GM) ([4]; Normal Mice, 10 MPK PO in PEG-200): 5.35
